{"source": "patent US8192962B2", "about": "“Processes for detecting toxic substances” (Daikin Industries, Ltd., priority 2001, dated 2012)", "test_system": "Transport facilitation protein genes", "experiment": "DNA chip mRNA expression in yeast, transport facilitation protein genes (Table 5)", "format": "cell-based, Saccharomyces cerevisiae S288C", "in_short": "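First, S288C yeast grown in YPD at 25° C. are dosed in log phase with one toxicant (growth-inhibiting, not lethal) for 2 h. Next, total RNA is extracted and poly(A) mRNA isolated and reverse-transcribed with Cy3/Cy5-dUTP. Finally, whole-genome chip fluorescence is read relative to unexposed cells.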"}
{"molecule": "Oc1cc(Cl)c(Cl)cc1Cl", "note": "[(6), 2,4,5-trichlorophenol]", "values": [{"measurement": "The level of expressed mRNA in the presence of chemical substance/The level of expressed mRNA in the absence of chemical substance", "setting": "yeast gene YBL030C", "result": 1.1}, {"measurement": "The level of expressed mRNA in the presence of chemical substance/The level of expressed mRNA in the absence of chemical substance", "setting": "yeast gene YBL099W", "result": 0.9}, {"measurement": "The level of expressed mRNA in the presence of chemical substance/The level of expressed mRNA in the absence of chemical substance", "setting": "yeast gene YBR052C", "result": 2.1}, {"measurement": "The level of expressed mRNA in the presence of chemical substance/The level of expressed mRNA in the absence of chemical substance", "setting": "yeast gene YBR068C", "result": 1.9}, {"measurement": "The level of expressed mRNA in the presence of chemical substance/The level of expressed mRNA in the absence of chemical substance", "setting": "yeast gene YBR127C", "result": 1.1}, {"measurement": "The level of expressed mRNA in the presence of chemical substance/The level of expressed mRNA in the absence of chemical substance", "setting": "yeast gene YBR132C", "result": 1.2}, {"measurement": "The level of expressed mRNA in the presence of chemical substance/The level of expressed mRNA in the absence of chemical substance", "setting": "yeast gene YBR207W", "result": 1.6}, {"measurement": "The level of expressed mRNA in the presence of chemical substance/The level of expressed mRNA in the absence of chemical substance", "setting": "yeast gene YBR293W", "result": 0.9}, {"measurement": "The level of expressed mRNA in the presence of chemical substance/The level of expressed mRNA in the absence of chemical substance", "setting": "yeast gene YBR294W", "result": 1.2}, {"measurement": "The level of expressed mRNA in the presence of chemical substance/The level of expressed mRNA in the absence of chemical substance", "setting": "yeast gene YBR298C", "result": 0.4}, {"measurement": "The level of expressed mRNA in the presence of chemical substance/The level of expressed mRNA in the absence of chemical substance", "setting": "yeast gene YCL025C", "result": 0.9}, {"measurement": "The level of expressed mRNA in the presence of chemical substance/The level of expressed mRNA in the absence of chemical substance", "setting": "yeast gene YCL038C", "result": 3.2}, {"measurement": "The level of expressed mRNA in the presence of chemical substance/The level of expressed mRNA in the absence of chemical substance", "setting": "yeast gene YCR024C-A", "result": 1.2}, {"measurement": "The level of expressed mRNA in the presence of chemical substance/The level of expressed mRNA in the absence of chemical substance", "setting": "yeast gene YCR037C", "result": 1.8}, {"measurement": "The level of expressed mRNA in the presence of chemical substance/The level of expressed mRNA in the absence of chemical substance", "setting": "yeast gene YCR098C", "result": 1.6}, {"measurement": "The level of expressed mRNA in the presence of chemical substance/The level of expressed mRNA in the absence of chemical substance", "setting": "yeast gene YDL128W", "result": 2.3}, {"measurement": "The level of expressed mRNA in the presence of chemical substance/The level of expressed mRNA in the absence of chemical substance", "setting": "yeast gene YDL198C", "result": 0.8}, {"measurement": "The level of expressed mRNA in the presence of chemical substance/The level of expressed mRNA in the absence of chemical substance", "setting": "yeast gene YDL210W", "result": 1.3}, {"measurement": "The level of expressed mRNA in the presence of chemical substance/The level of expressed mRNA in the absence of chemical substance", "setting": "yeast gene YDL245C", "result": 1.1}, {"measurement": "The level of expressed mRNA in the presence of chemical substance/The level of expressed mRNA in the absence of chemical substance", "setting": "yeast gene YDR038C", "result": 1.8}, {"measurement": "The level of expressed mRNA in the presence of chemical substance/The level of expressed mRNA in the absence of chemical substance", "setting": "yeast gene YDR039C", "result": 1.1}, {"measurement": "The level of expressed mRNA in the presence of chemical substance/The level of expressed mRNA in the absence of chemical substance", "setting": "yeast gene YDR086C", "result": 0.8}, {"measurement": "The level of expressed mRNA in the presence of chemical substance/The level of expressed mRNA in the absence of chemical substance", "setting": "yeast gene YDR270W", "result": 2.2}, {"measurement": "The level of expressed mRNA in the presence of chemical substance/The level of expressed mRNA in the absence of chemical substance", "setting": "yeast gene YDR298C", "result": 1.2}, {"measurement": "The level of expressed mRNA in the presence of chemical substance/The level of expressed mRNA in the absence of chemical substance", "setting": "yeast gene YDR342C", "result": 1.1}, {"measurement": "The level of expressed mRNA in the presence of chemical substance/The level of expressed mRNA in the absence of chemical substance", "setting": "yeast gene YDR343C", "result": 1.3}, {"measurement": "The level of expressed mRNA in the presence of chemical substance/The level of expressed mRNA in the absence of chemical substance", "setting": "yeast gene YDR345C", "result": 1.2}, {"measurement": "The level of expressed mRNA in the presence of chemical substance/The level of expressed mRNA in the absence of chemical substance", "setting": "yeast gene YDR387C", "result": 1.2}, {"measurement": "The level of expressed mRNA in the presence of chemical substance/The level of expressed mRNA in the absence of chemical substance", "setting": "yeast gene YDR497C", "result": 0.6}, {"measurement": "The level of expressed mRNA in the presence of chemical substance/The level of expressed mRNA in the absence of chemical substance", "setting": "yeast gene YEL027W", "result": 1.1}, {"measurement": "The level of expressed mRNA in the presence of chemical substance/The level of expressed mRNA in the absence of chemical substance", "setting": "yeast gene YEL063C", "result": 1.3}, {"measurement": "The level of expressed mRNA in the presence of chemical substance/The level of expressed mRNA in the absence of chemical substance", "setting": "yeast gene YEL065W", "result": 2.3}, {"measurement": "The level of expressed mRNA in the presence of chemical substance/The level of expressed mRNA in the absence of chemical substance", "setting": "yeast gene YER053C", "result": 2.8}, {"measurement": "The level of expressed mRNA in the presence of chemical substance/The level of expressed mRNA in the absence of chemical substance", "setting": "yeast gene YER119C", "result": 1.3}, {"measurement": "The level of expressed mRNA in the presence of chemical substance/The level of expressed mRNA in the absence of chemical substance", "setting": "yeast gene YFL011W", "result": 1.0}, {"measurement": "The level of expressed mRNA in the presence of chemical substance/The level of expressed mRNA in the absence of chemical substance", "setting": "yeast gene YFL041W", "result": 2.0}, {"measurement": "The level of expressed mRNA in the presence of chemical substance/The level of expressed mRNA in the absence of chemical substance", "setting": "yeast gene YFL050C", "result": 0.9}, {"measurement": "The level of expressed mRNA in the presence of chemical substance/The level of expressed mRNA in the absence of chemical substance", "setting": "yeast gene YFL054C", "result": 2.4}, {"measurement": "The level of expressed mRNA in the presence of chemical substance/The level of expressed mRNA in the absence of chemical substance", "setting": "yeast gene YFL055W", "result": 1.1}, {"measurement": "The level of expressed mRNA in the presence of chemical substance/The level of expressed mRNA in the absence of chemical substance", "setting": "yeast gene YGL006W", "result": 1.0}, {"measurement": "The level of expressed mRNA in the presence of chemical substance/The level of expressed mRNA in the absence of chemical substance", "setting": "yeast gene YGL008C", "result": 1.9}, {"measurement": "The level of expressed mRNA in the presence of chemical substance/The level of expressed mRNA in the absence of chemical substance", "setting": "yeast gene YGL104C", "result": 2.1}, {"measurement": "The level of expressed mRNA in the presence of chemical substance/The level of expressed mRNA in the absence of chemical substance", "setting": "yeast gene YGL167C", "result": 2.0}, {"measurement": "The level of expressed mRNA in the presence of chemical substance/The level of expressed mRNA in the absence of chemical substance", "setting": "yeast gene YGL255W", "result": 1.1}, {"measurement": "The level of expressed mRNA in the presence of chemical substance/The level of expressed mRNA in the absence of chemical substance", "setting": "yeast gene YGR055W", "result": 1.1}, {"measurement": "The level of expressed mRNA in the presence of chemical substance/The level of expressed mRNA in the absence of chemical substance", "setting": "yeast gene YGR065C", "result": 2.4}, {"measurement": "The level of expressed mRNA in the presence of chemical substance/The level of expressed mRNA in the absence of chemical substance", "setting": "yeast gene YGR082W", "result": 1.1}, {"measurement": "The level of expressed mRNA in the presence of chemical substance/The level of expressed mRNA in the absence of chemical substance", "setting": "yeast gene YGR096W", "result": 1.7}, {"measurement": "The level of expressed mRNA in the presence of chemical substance/The level of expressed mRNA in the absence of chemical substance", "setting": "yeast gene YGR138C", "result": 0.8}, {"measurement": "The level of expressed mRNA in the presence of chemical substance/The level of expressed mRNA in the absence of chemical substance", "setting": "yeast gene YGR191W", "result": 1.1}, {"measurement": "The level of expressed mRNA in the presence of chemical substance/The level of expressed mRNA in the absence of chemical substance", "setting": "yeast gene YGR197C", "result": 0.5}, {"measurement": "The level of expressed mRNA in the presence of chemical substance/The level of expressed mRNA in the absence of chemical substance", "setting": "yeast gene YGR224W", "result": 0.8}, {"measurement": "The level of expressed mRNA in the presence of chemical substance/The level of expressed mRNA in the absence of chemical substance", "setting": "yeast gene YGR260W", "result": 0.9}]}
